# Measurements reported in PubChem BioAssay (NCI).
#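 Cultured in 96-well plates, cells were exposed to test compound for 48 hours across five concentrations. Definition used: TGI = concentration required for complete inhibition of growth.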
# Experiments:
# Assay in all cases: NCI tumour cell line growth inhibition, 48 h
# [1] = test system: SF-539 CNS
# [2] = test system: MALME-3M melanoma
# [3] = test system: HL-60(TB) leukemia
# [4] = test system: SN12K1 renal
# [5] = test system: RXF 393 renal
# [6] = test system: NCI-H522 lung
# [7] = test system: COLO 205 colon
# [8] = test system: RPMI-8226 leukemia
# [9] = test system: MCF7 breast
# [10] = test system: SN12C renal
# [11] = test system: DLD-1 colon
# [12] = test system: CCRF-CEM leukemia
# [13] = test system: U251 CNS
# [14] = test system: LOX IMVI melanoma
# [15] = test system: M19-MEL melanoma
# [16] = test system: NCI/ADR-RES ovarian
# [17] = test system: CAKI-1 renal
# [18] = test system: OVCAR-8 ovarian
# [19] = test system: K-562 leukemia
# [20] = test system: HT29 colon
# [21] = test system: A549 NSCLC
# [22] = test system: HCT-116 colon
# [23] = test system: SK-MEL-5 melanoma
# [24] = test system: DMS 273 small cell lung
# [25] = test system: UO-31 renal
# [26] = test system: UACC-62 melanoma
# [27] = test system: OVCAR-4 ovarian
# [28] = test system: SW-620 colon
# [29] = test system: OVCAR-5 ovarian
# [30] = test system: SF-295 CNS
# [31] = test system: HCC-2998 colon
# [32] = test system: UACC-257 melanoma
# [33] = test system: NCI-H460 lung
# [34] = test system: NCI-H23 lung
# [35] = test system: SNB-78 CNS
# [36] = test system: IGROV1 ovarian
# [37] = test system: SF-268 CNS
# [38] = test system: OVCAR-3 ovarian
# [39] = test system: SNB-75 CNS
# [40] = test system: SK-OV-3 ovarian
# [41] = test system: EKVX NSCLC
# [42] = test system: A498 renal
# [43] = test system: MOLT-4 leukemia
# [44] = test system: SK-MEL-2 melanoma
# [45] = test system: SNB-19 CNS
# [46] = test system: DMS 114 small cell lung
# [47] = test system: SK-MEL-28 melanoma
# [48] = test system: KM12 colon
# [49] = test system: HOP-18 NSCLC
# [50] = test system: HOP-62 NSCLC
# [51] = test system: P388/ADR leukemia
# [52] = test system: NCI-H226 lung
# [53] = test system: XF 498 CNS
# [54] = test system: HCT-15 colon
# [55] = test system: KM20L2 colon
# [56] = test system: P388 leukemia
compound,measurement,setting,value
CC1(C)OC2CC(=O)OCC23C1CC(=O)C1(C)C3CCC2(C)C(c3ccoc3)OC(=O)C3OC321 (stereo unspecified),TGI,[1],> 125 µM
same,TGI,[2],> 125 µM
same,TGI,[3],> 125 µM
same,TGI,[4],> 125 µM
same,TGI,[5],> 125 µM
same,TGI,[6],> 125 µM
same,TGI,[7],> 125 µM
same,TGI,[8],> 125 µM
same,TGI,[9],> 70.3 µM
same,TGI,[10],> 39.5 µM
same,TGI,[11],> 125 µM
same,TGI,[12],> 125 µM
same,TGI,[13],> 125 µM
same,TGI,[14],> 125 µM
same,TGI,[15],> 125 µM
same,TGI,[16],> 125 µM
same,TGI,[17],> 125 µM
same,TGI,[18],7.03 µM
same,TGI,[19],> 70.3 µM
same,TGI,[20],> 125 µM
same,TGI,[21],> 125 µM
same,TGI,[22],> 125 µM
same,TGI,[23],> 125 µM
same,TGI,[24],> 125 µM
same,TGI,[25],> 125 µM
same,TGI,[26],> 125 µM
same,TGI,[27],> 125 µM
same,TGI,[28],> 125 µM
same,TGI,[29],> 125 µM
same,TGI,[30],> 125 µM
same,TGI,[31],> 125 µM
same,TGI,[32],> 125 µM
same,TGI,[33],> 125 µM
same,TGI,[34],> 125 µM
same,TGI,[35],> 125 µM
same,TGI,[36],> 125 µM
same,TGI,[37],> 125 µM
same,TGI,[38],> 125 µM
same,TGI,[39],> 109 µM
same,TGI,[40],> 125 µM
same,TGI,[41],> 58 µM
same,TGI,[42],> 125 µM
same,TGI,[43],> 125 µM
same,TGI,[44],> 125 µM
same,TGI,[45],> 125 µM
same,TGI,[46],> 125 µM
same,TGI,[47],> 125 µM
same,TGI,[48],> 125 µM
same,TGI,[49],> 125 µM
same,TGI,[50],> 125 µM
same,TGI,[51],> 125 µM
same,TGI,[52],> 125 µM
same,TGI,[53],> 125 µM
same,TGI,[54],> 125 µM
same,TGI,[55],> 125 µM
same,TGI,[56],> 39.5 µM
